According to patent US12319701B2, “Antagonists of the muscarinic acetylcholine receptor M4” (priority 2019, dated 2025):
pIC50: −log10 of the molar value.

Target: T1, Human M4 (Homo sapiens, UniProt P08173)
T1 construct: expressed in transfected cells; host or cells: CHO-K1 (ATCC), stably co-expressing chimeric G protein Gqi5
T1 sequence (P08173 1-479): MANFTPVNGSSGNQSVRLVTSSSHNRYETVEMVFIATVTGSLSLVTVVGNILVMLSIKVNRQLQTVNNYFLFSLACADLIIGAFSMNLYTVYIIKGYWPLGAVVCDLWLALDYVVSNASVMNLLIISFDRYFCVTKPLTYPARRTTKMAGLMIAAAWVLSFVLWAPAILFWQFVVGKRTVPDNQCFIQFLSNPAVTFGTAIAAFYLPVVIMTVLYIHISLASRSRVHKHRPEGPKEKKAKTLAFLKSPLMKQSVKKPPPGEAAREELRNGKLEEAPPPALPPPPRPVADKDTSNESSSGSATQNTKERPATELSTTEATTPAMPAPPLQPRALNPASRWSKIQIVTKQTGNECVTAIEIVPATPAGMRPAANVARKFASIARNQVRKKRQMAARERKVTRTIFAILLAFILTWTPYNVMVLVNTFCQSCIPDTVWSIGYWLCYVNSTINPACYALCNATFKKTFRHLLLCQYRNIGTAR
Experiment: mAChR M4 cell-based functional assay (calcium flux, Fluo-4, M4/Gqi5/CHO-K1 cells)
Conditions: for remaining activity at 30 µM: CHO-K1, read-out: Human M4 Emin (%), % ACh maximum at 30 μM
Experimental: Human or rat M4 cDNA, along with the chimeric G protein Gqi5, were transfected into Chinese hamster ovary (CHO-K1) cells purchased from the American Type Culture Collection using Lipofectamine2000. M4/Gqi5/CHO cells were grown in Ham's F-12 medium containing 10% heat-inactivated fetal bovine serum (FBS), 20 mM HEPES, 500 μg/mL 418 sulfate, and 200 μg/mL Hygromycin B.
For high throughput measurement of agonist-evoked increases in intracellular calcium, CHO-K1 cells stably expressing muscarinic receptors were plated in growth medium lacking 418 and hygromycin at 15,000 cells/20 μL/well in Greiner 384-well black-walled, tissue culture (TC)-treated, clear-bottom plates (VWR). Cells were incubated overnight at 37° C. and 5% CO2. The next day, cells were washed using an ELX 405 (BioTek) with assay buffer; the final volume was then aspirated to 20 μL. Next, 20 μL of a 2.3 μM stock of Fluo-4/acetoxymethyl ester (Invitrogen, Carlsbad, CA), prepared as a 2.3 mM stock in DMSO and mixed in a 1:1 ratio with 10% (w/v) Pluronic F-127 and diluted in assay buffer, was added to the wells and the cell plates were incubated for 50 min at 37° C. and 5% CO2. Dye was removed by washing with the ELX 405 and the final volume was aspirated to 20 μL. Compound master plates were formatted in a 10 point concentration-response curve (CRC) format (1:3 dilutions) in 100% DMSO with a starting concentration of 10 or 1 mM using a BRAVO liquid handler (Agilent). Test compound CRCs were then transferred to daughter plates (240 nL) using the Echo acoustic plate reformatter (Labcyte, Sunnyvale, CA) and then diluted into assay buffer (40 μL) to a 2× stock using a Thermo Fisher Combi (Thermo Fisher Scientific, Waltham, MA).
Calcium flux was measured using the Functional Drug Screening System (FDSS) 6000 or 7000 (Hamamatsu Corporation, Tokyo, Japan) as an increase in the fluorescent static ratio. Compounds were applied to cells (20 μL, 2×) using the automated system of the FDSS at 2 seconds into the protocol and the data were collected at 1 Hz. At 143 s, 10 μL of an EC20 concentration of the muscarinic receptor agonist acetylcholine was added (5×), followed by the addition of 12 μL of an EC80 concentration of acetylcholine at the 268 s time point (5×). Agonist activity was analyzed as a concentration-dependent increase in calcium mobilization upon compound addition. Positive allosteric modulator activity was analyzed as a concentration-dependent increase in the EC20 acetylcholine response. Antagonist activity was analyzed as a concentration-dependent decrease in the ECK) acetylcholine response; for the purposes of the tables herein, an IC50 (inhibitory concentration 50) was calculated as a concentration-dependent decrease of the response elicited by an ECK) concentration of acetylcholine. Concentration-response curves were generated using a four-parameter logistical equation in XLFit curve fitting software (IDBS, Bridgewater, NJ) for Excel (Microsoft, Redmond, WA) or Prism (GraphPad Software, Inc., San Diego, CA) or the Dotmatics software platform (Dotmatics, Bishop's Stortford, UK).
Compounds were synthesized as described above. Activity (IC50 and Emin) was determined in the mAChR M4 cell-based functional assay as described above and the data are shown in Table 2.

Row | Structure (SMILES) | pIC50 | remaining activity at 30 µM [%]
1 | FC1(F)CCN(c2nnc(N[C@H]3C[C@@H]4CN(CC5CCOCC5)C[C@@H]4C3)c3ccsc23)CC1 [compound 20, 7-(4,4-difluoropiperidin-1-yl)-N-((3aR,5s,6aS)-2-((tetrahydro-2H-pyran-4-yl)methyl)octahydrocyclopenta[c]pyrrol-5-yl)thieno[2,3-d]pyridazin-4-amine] | 8.25 | 3
2 | Cc1ccccc1-c1nnc(N[C@H]2C[C@@H]3CN(CC4CCOCC4)C[C@@H]3C2)c2ccsc12 [compound 5, N-((3aR,5s,6aS)-2-((tetrahydro-2H-pyran-4-yl)methyl)octahydrocyclopenta[c]pyrrol-5-yl)-7-(o-tolyl)thieno[2,3-d]pyridazin-4-amine] | 8.61 | 4
3 | Fc1ccc(F)c(-c2nnc(N[C@H]3C[C@@H]4CN(CC5CCOCC5)C[C@@H]4C3)c3c2CCCC3)c1 [compound 23, 4-(2,5-difluorophenyl)-N-((3aR,5s,6aS)-2-((tetrahydro-2H-pyran-4-yl)methyl)octahydrocyclopenta[c]pyrrol-5-yl)-5,6,7,8-tetrahydrophthalazin-1-amine] | 8.27 | 3
4 | Cc1ccc(F)cc1-c1nnc(N[C@H]2C[C@@H]3CN(CC4CCOCC4)C[C@@H]3C2)c2sccc12 [compound 11, 4-(5-fluoro-2-methylphenyl)-N-((3aR,5s,6aS)-2-((tetrahydro-2H-pyran-4-yl)methyl)octahydrocyclopenta[c]pyrrol-5-yl)thieno[2,3-d]pyridazin-7-amine] | 8.80 | 3
5 | Cc1ccc(C)c(-c2nnc(N[C@H]3C[C@@H]4CN(CC5CCOCC5)C[C@@H]4C3)c3ccsc23)c1 [compound 4, 7-(2,5-dimethylphenyl)-N-((3aR,5s,6aS)-2-((tetrahydro-2H-pyran-4-yl)methyl)octahydrocyclopenta[c]pyrrol-5-yl)thieno[2,3-d]pyridazin-4-amine] | 7.87 | 3
6 | Fc1ccc(-c2nnc(N[C@H]3C[C@@H]4CN(CC5CCOCC5)C[C@@H]4C3)c3c2CCCC3)cc1 [compound 26, 4-(4-fluorophenyl)-N-((3aR,5s,6aS)-2-((tetrahydro-2H-pyran-4-yl)methyl)octahydrocyclopenta[c]pyrrol-5-yl)-5,6,7,8-tetrahydrophthalazin-1-amine] | 7.23 | 3
7 | Fc1ccccc1-c1nnc(N[C@H]2C[C@@H]3CN(CC4CCOCC4)C[C@@H]3C2)c2c1CCCC2 [compound 24, 4-(2-fluorophenyl)-N-((3aR,5s,6aS)-2-((tetrahydro-2H-pyran-4-yl)methyl)octahydrocyclopenta[c]pyrrol-5-yl)-5,6,7,8-tetrahydrophthalazin-1-amine] | 8.21 | 3
8 | Fc1cc(F)c(F)c(-c2nnc(N[C@H]3C[C@@H]4CN(CC5CCOCC5)C[C@@H]4C3)c3ccsc23)c1 [compound 16, N-((3aR,5s,6aS)-2-((tetrahydro-2H-pyran-4-yl)methyl)octahydrocyclopenta[c]pyrrol-5-yl)-7-(2,3,5-trifluorophenyl)thieno[2,3-d]pyridazin-4-amine] | 8.77 | 4
9 | [2H]C([2H])(C1CCOCC1)N1C[C@H]2C[C@H](Nc3nnc(-c4cc(F)ccc4F)c4ccccc34)C[C@H]2C1 [compound 27, 4-(2,5-difluorophenyl)-N-((3aR,5s,6aS)-2-((tetrahydro-2H-pyran-4-yl)methyl-d2)octahydrocyclopenta[c]pyrrol-5-yl)phthalazin-1-amine] | 7.92 | 3

Continued by rising pIC50, values first:

Row | pIC50 | remaining activity at 30 µM [%] | Structure (SMILES)
10 | 5.09 | 20 | COc1ccccc1-c1nnc(N[C@H]2C[C@@H]3CN(CC4CCOCC4)C[C@@H]3C2)c2ccsc12 [compound 6, 7-(2-methoxyphenyl)-N-((3aR,5s,6aS)-2-((tetrahydro-2H-pyran-4-yl)methyl)octahydrocyclopenta[c]pyrrol-5-yl)thieno[2,3-d]pyridazin-4-amine]
11 | 6.55 | 5 | Clc1nnc(N[C@H]2C[C@@H]3CN(CC4CCOCC4)C[C@@H]3C2)c2sccc12 [compound 12, 4-chloro-N-((3aR,5s,6aS)-2-((tetrahydro-2H-pyran-4-yl)methyl)octahydrocyclopenta[c]pyrrol-5-yl)thieno[2,3-d]pyridazin-7-amine]
12 | 7.82 | 4 | C[C@H]1CCCN(c2nnc(N[C@H]3C[C@@H]4CN(CC5CCOCC5)C[C@@H]4C3)c3ccsc23)C1 [compound 21, 7-((S)-3-methylpiperidin-1-yl)-N-((3aR,5s,6aS)-2-((tetrahydro-2H-pyran-4-yl)methyl)octahydrocyclopenta[c]pyrrol-5-yl)thieno[2,3-d]pyridazin-4-amine]
13 | 7.84 | 3 | FC1(F)CCN(c2nnc(N[C@H]3C[C@@H]4CN(CC5CCOCC5)C[C@@H]4C3)c3c2CCCC3)CC1 [compound 22, 4-(4,4-difluoropiperidin-1-yl)-N-((3aR,5s,6aS)-2-((tetrahydro-2H-pyran-4-yl)methyl)octahydrocyclopenta[c]pyrrol-5-yl)-5,6,7,8-tetrahydrophthalazin-1-amine]
14 | 8.20 | 4 | Fc1ccc(F)c(-c2nnc(N[C@H]3C[C@@H]4CN(CC5CCOCC5)C[C@@H]4C3)c3sccc23)c1 [compound 10, 4-(2,5-difluorophenyl)-N-((3aR,5s,6aS)-2-((tetrahydro-2H-pyran-4-yl)methyl)octahydrocyclopenta[c]pyrrol-5-yl)thieno[2,3-d]pyridazin-7-amine]
15 | 8.54 | 3 | Fc1ccc(F)c(-c2nnc(N[C@H]3C[C@@H]4CN(CC5CCOCC5)C[C@@H]4C3)c3ccsc23)c1 [compound 2, 7-(2,5-difluorophenyl)-N-((3aR,5s,6aS)-2-((tetrahydro-2H-pyran-4-yl)methyl)octahydrocyclopenta[c]pyrrol-5-yl)thieno[2,3-d]pyridazin-4-amine]
16 | 8.85 | 3 | [2H]C([2H])(C1CCOCC1)N1C[C@H]2C[C@H](Nc3nnc(-c4cc(F)ccc4C)c4sccc34)C[C@H]2C1 [compound 19, 7-(5-fluoro-2-methylphenyl)-N-((3aR,5s,6aS)-2-((tetrahydro-2H-pyran-4-yl)methyl-d2)octahydrocyclopenta[c]pyrrol-5-yl)thieno[2,3-d]pyridazin-4-amine]
17 | 9.19 | 3 | Cc1c(-c2nnc(N[C@H]3C[C@@H]4CN(CC5CCOCC5)C[C@@H]4C3)c3ccsc23)ccc2nn(C)cc12 [compound 17, 7-(2,4-dimethyl-2H-indazol-5-yl)-N-((3aR,5s,6aS)-2-((tetrahydro-2H-pyran-4-yl)methyl)octahydrocyclopenta[c]pyrrol-5-yl)thieno[2,3-d]pyridazin-4-amine]
